The values below come from patent US20230017045A1, “PYRIDINE AND PYRIMIDINE CARBOXYLATE HERBICIDES AND METHODS OF USE THEREOF” (Dow AgroSciences LLC, priority 2017, published 2023).

For the assay, the system named is test plant species. Briefly: Post-emergent herbicidal activity test (greenhouse, foliar spray, visual growth reduction). Format: in vivo. Conditions: post-emergence, 336 h, 140 g ai/ha. In short, it runs like this: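 Greenhouse plants at first–second true leaf stage sprayed overhead at 187 L/ha with compound in acetone/water/isopropanol/DMSO/crop oil/X-77 carrier; controls received solvent blank. Injury rated visually after 14 d on a 0–100% scale versus untreated and control plants, converted to growth reduction.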

The mark [1] stands for this setting: ECHCG: barnyardgrass (Echinochloa crus-galli), 14 days after application, read-out: Visual Growth Reduction (%) 14 Days After Application, ECHCG.
The mark [2] stands for this setting: IPOHE: ivy-leaf morning glory (Ipomoea hederacea), 14 days after application, read-out: Visual Growth Reduction (%) 14 Days After Application, IPOHE.
Where [3] appears, read: KCHSC: kochia (Bassia scoparia), 14 days after application, read-out: Visual Growth Reduction (%) 14 Days After Application, KCHSC.
Setting [4] is: ORYSA: rice (Oryza sativa), 14 days after application, read-out: Visual Growth Reduction (%) 14 Days After Application, ORYSA.
[5] abbreviates: SETFA: giant foxtail (Setaria faberi), 14 days after application, read-out: Visual Growth Reduction (%) 14 Days After Application, SETFA.
Where [6] appears, read: SORVU: grain sorghum (Sorghum vulgare), 14 days after application, read-out: Visual Growth Reduction (%) 14 Days After Application, SORVU.
Setting [7] is: STEME: common chickweed (Stellaria media), 14 days after application, read-out: Visual Growth Reduction (%) 14 Days After Application, STEME.
[8] abbreviates: TRZAS: wheat, spring (Triticum aestivum), 14 days after application, read-out: Visual Growth Reduction (%) 14 Days After Application, TRZAS.
Where [9] appears, read: blackgrass (Alopecurus myosuroides), 14 Days After Application, read-out: Visual Growth Reduction (%) ALOMY.
[10] abbreviates: canada thistle (Cirsium arvense), 14 Days After Application, read-out: Visual Growth Reduction (%) CIRAR.
[11] abbreviates: crabgrass (Digitaria sanguinalis), 14 Days After Application, read-out: Visual Growth Reduction (%) DIGSA.
[12] abbreviates: lambsquarters (Chenopodium album), 14 Days After Application, read-out: Visual Growth Reduction (%) CHEAL.
Setting [13] is: redroot pigweed (Amaranthus retroflexus), 14 Days After Application, read-out: Visual Growth Reduction (%) AMARE.
Setting [14] is: wild oat (Avena fatua), 14 Days After Application, read-out: Visual Growth Reduction (%) AVEFA.
The mark [15] stands for this setting: yellow nutsedge (Cyperus esculentus), 14 Days After Application, read-out: Visual Growth Reduction (%) CYPES.

Read-outs that look alike come from different tables or passages of the source.

Turning to `COC(=O)c1nc(-c2cc(OC)c3c(c2)OCO3)c(F)cc1Cl` [F231, Methyl 3-chloro-5-fluoro-6-(7-methoxybenzo[d] [1,3]dioxol-5-yl)picolinate], the pest or weed control at 140 g/ha is 0 to 29% under setting [1]; 0 to 29% under setting [2]; 0 to 29% under setting [3]; 0 to 29% under setting [4]; 0 to 29% under setting [5]; 0 to 29% under setting [6]. Further, the pest or weed control at 140 g/ha under setting [7] is 0 to 29%; the pest or weed control at 140 g/ha under setting [8] was in the range of 0 to 29%; the pest or weed control at 140 g/ha under setting [9] was 0 to 29%; the pest or weed control at 140 g/ha under setting [10] lay within 0 to 29%; the pest or weed control at 140 g/ha under setting [11] lay in the range of 0 to 29%; the pest or weed control at 140 g/ha under setting [12] is 0 to 29%. Also, the pest or weed control at 140 g/ha under setting [13] was 0 to 29%, the pest or weed control at 140 g/ha under setting [14] lay in the range of 0 to 29% and the pest or weed control at 140 g/ha under setting [15] was 0 to 29%.

Take `COC(=O)c1nc(-c2cc3c(cc2Cl)OC(F)(F)O3)ncc1Cl` [F232, Methyl 5-chloro-2-(6-chloro-2,2-difluorobenzo[d][1,3]dioxol-5-yl)pyrimidine-4-carboxylate]: the pest or weed control at 140 g/ha under setting [1] lay in the range of 75 to 84%; the pest or weed control at 140 g/ha under setting [2] lay in the range of 95 to 100%; the pest or weed control at 140 g/ha under setting [3] was 45 to 59%; the pest or weed control at 140 g/ha under setting [4] fell in the range of 0 to 29%; the pest or weed control at 140 g/ha under setting [5] was 75 to 84%; the pest or weed control at 140 g/ha under setting [6] lay in the range of 85 to 94%. Moreover, the pest or weed control at 140 g/ha lay within 45 to 59% under setting [7]; 45 to 59% under setting [8]; 0 to 29% under setting [9]; 85 to 94% under setting [10]; 95 to 100% under setting [11]; 95 to 100% under setting [12]. Moreover, the pest or weed control at 140 g/ha lay in the range of 60 to 74% under setting [13], 0 to 29% under setting [14] and 0 to 29% under setting [15].

As to `COC(=O)c1nc(-c2ccc3c(c2C)OC(F)(F)O3)c(F)cc1Cl` [F233, Methyl 3-chloro-6-(2,2-difluoro-4-methylbenzo[d][1,3]dioxol-5-yl)-5-fluoropicolinate], the pest or weed control at 140 g/ha was in the range of 45 to 59% under setting [1]; 95 to 100% under setting [2]; 85 to 94% under setting [3]; 0 to 29% under setting [4]; 85 to 94% under setting [5]; 85 to 94% under setting [6]. For the same molecule, the pest or weed control at 140 g/ha is, setting by setting: under setting [7], 45 to 59%; under setting [8], 60 to 74%; under setting [9], 75 to 84%; under setting [10], 95 to 100%; under setting [11], 95 to 100%; under setting [12], 95 to 100%. Besides, the pest or weed control at 140 g/ha reads like this: under setting [13], 95 to 100%; under setting [14], 45 to 59%; under setting [15], 45 to 59%.

`COC(=O)c1nc(-c2ccc(F)c3c2OC(F)(F)O3)c(F)cc1Cl` [F234, Methyl 3-chloro-5-fluoro-6-(2,2,7-trifluorobenzo[d][1,3]dioxol-4-yl)picolinate]: the pest or weed control at 140 g/ha under setting [1] was 0 to 29%; the pest or weed control at 140 g/ha under setting [2] was in the range of 60 to 74%; the pest or weed control at 140 g/ha under setting [3] fell in the range of 0 to 29%; the pest or weed control at 140 g/ha under setting [4] is 0 to 29%; the pest or weed control at 140 g/ha under setting [5] is 0 to 29%; the pest or weed control at 140 g/ha under setting [6] lay within 0 to 29%. The pest or weed control at 140 g/ha reads like this: under setting [7], 0 to 29%; under setting [8], 0 to 29%; under setting [9], 0 to 29%; under setting [10], 0 to 29%; under setting [11], 30 to 44%; under setting [12], 30 to 44%. Besides, the pest or weed control at 140 g/ha reads like this: under setting [13], 0 to 29%; under setting [14], 0 to 29%; under setting [15], 0 to 29%.

On to `COC(=O)c1nc(-c2ccc3c(c2OC)OC(F)(F)O3)c(F)cc1Cl` [F235, Methyl 3-chloro-6-(2,2-difluoro-4-methoxybenzo[d][1,3]dioxol-5-yl)-5-fluoropicolinate], for which the pest or weed control at 140 g/ha under setting [1] lay within 95 to 100%; the pest or weed control at 140 g/ha under setting [2] was in the range of 95 to 100%; the pest or weed control at 140 g/ha under setting [3] was in the range of 95 to 100%; the pest or weed control at 140 g/ha under setting [4] was 45 to 59%; the pest or weed control at 140 g/ha under setting [5] was 95 to 100%; the pest or weed control at 140 g/ha under setting [6] lay within 95 to 100%. For the same molecule, the pest or weed control at 140 g/ha by setting is: under setting [7], 85 to 94%; under setting [8], 95 to 100%; under setting [9], 60 to 74%; under setting [10], 95 to 100%; under setting [11], 95 to 100%; under setting [12], 95 to 100%. The pest or weed control at 140 g/ha under setting [13] was 95 to 100%, the pest or weed control at 140 g/ha under setting [14] is 95 to 100% and the pest or weed control at 140 g/ha under setting [15] was 0 to 29%.

As to `COC(=O)c1nc(-c2ccc(C3(C#N)CC3)cc2Cl)ccc1Cl` [F236, Methyl 3-chloro-6-(2-chloro-4-(1-cyanocyclopropyl)phenyl)picolinate], the pest or weed control at 140 g/ha by setting is: under setting [1], 0 to 29%; under setting [2], 95 to 100%; under setting [3], 75 to 84%; under setting [4], 0 to 29%; under setting [5], 75 to 84%; under setting [6], 75 to 84%. Further, the pest or weed control at 140 g/ha was in the range of 45 to 59% under setting [7]; 0 to 29% under setting [8]; 0 to 29% under setting [9]; 85 to 94% under setting [10]; 75 to 84% under setting [11]; 85 to 94% under setting [12]. Further, the pest or weed control at 140 g/ha fell in the range of 30 to 44% under setting [13], 0 to 29% under setting [14] and 0 to 29% under setting [15].

For the molecule `COC(=O)c1nc(-c2ccc(C3(C#N)CC3)cc2Cl)c(F)cc1Cl` [F237, Methyl 3-chloro-6-(2-chloro-4-(1-cyanocyclopropyl)phenyl)-5-fluoropicolinate], the pest or weed control at 140 g/ha lay within 30 to 44% under setting [1]; 95 to 100% under setting [2]; 85 to 94% under setting [3]; 0 to 29% under setting [4]; 75 to 84% under setting [5]; 85 to 94% under setting [6]. Also, the pest or weed control at 140 g/ha lay within 30 to 44% under setting [7]; 45 to 59% under setting [8]; 0 to 29% under setting [9]; 95 to 100% under setting [10]; 85 to 94% under setting [11]; 85 to 94% under setting [12]. Moreover, the pest or weed control at 140 g/ha reads like this: under setting [13], 95 to 100%; under setting [14], 45 to 59%; under setting [15], 45 to 59%.

For the molecule `COC(=O)c1nc(-c2ccc(C3(C#N)CC3)cc2Cl)c(Cl)cc1Cl` [F238, Methyl 3,5-dichloro-6-(2-chloro-4-(1-cyanocyclopropyl)phenyl)picolinate], the pest or weed control at 140 g/ha was in the range of 0 to 29% under setting [1]; 75 to 84% under setting [2]; 0 to 29% under setting [3]; 0 to 29% under setting [4]; 45 to 59% under setting [5]; 60 to 74% under setting [6]. Further, the pest or weed control at 140 g/ha is, setting by setting: under setting [7], 0 to 29%; under setting [8], 0 to 29%; under setting [9], 0 to 29%; under setting [10], 60 to 74%; under setting [11], 60 to 74%; under setting [12], 95 to 100%. Besides, the pest or weed control at 140 g/ha runs as follows: under setting [13], 45 to 59%; under setting [14], 0 to 29%; under setting [15], 0 to 29%.
